Legend:
[1] = test system: oxidative stress; assay: Oxidative stress state in hippocampus after chronic social defeat; type: in vivo, Sprague-Dawley rats; conditions: vulnerable (V) rats; 288 μmol/kg/day via osmotic mini-pump for 15 days from D11; measured D31
Method: The social-defeat procedure (CSD) (D-3 to DO) was performed as previously described (see Becker et al., 2001; Blugeot et al., 2011).
Briefly, this procedure involved subjecting the same pairs of residents and intruders to four daily conditioning sessions. The 45-min conditioning sessions were divided into two consecutive periods. During period I (30 min), intruders were placed individually in a protective cage within the resident animal's home cage. The protective cage allowed unrestricted visual, auditory, and olfactory contact with the resident but prevented close physical contact. […]
The animals were decapitated and the left hippocampus was homogenized in ice-cold buffer (20 mM Hepes pH 7.2, 1 mM EGTA, 210 mM mannitol, 70 mM sucrose). […] Catalase and total SOD activities were immediately determined with commercially available kits (Cayman Chemical, Ann Arbor, Mich., USA), in accordance with the manufacturer's instructions. SOD and catalase specific activities are expressed as units per mg of hippocampus and as nmoles of formaldehyde formed per minute per mg of hippocampal tissue, respectively. […]
For the TBARS assay, protease inhibitors (50 μl/ml), DOC (1%), SDS (0.1%) and Triton® X-100 (0.5%) were added immediately in ice-cold buffer. […] TBARS concentration was calculated from an MDA standard curve and normalized. […]

[2] = test system: Sprague-Dawley rats; assay: Sweet water consumption after sensitization paradigm; type: in vivo; conditions: V animals; TEMPOL 288 μmol/kg/day 15 days from D11; after three weeks of CMS applied at D31
Method: Sprague-Dawley rats were subjected to chronic social defeat (CSD) and then, four weeks later, to three weeks of chronic mild stress (SSP rats). The chronic mild stress protocol (CMS) was performed as previously described (see Blugeot et al., 2011). The control rats were control intruders (not subjected to CSD) not exposed to the three weeks of CMS (C rats).
The CMS protocol is derived from that described by Willner et al. (1992). Briefly, various mild stresses were applied every day, over a period of three weeks. Briefly, from Monday to Friday, every morning, animals were placed in a small cage (10×16×15 cm) for 1 hour. In the afternoon, they were shaken for 10 min (Monday and Thursday), placed in a small cage containing water (2 cm high, Tuesday) or placed in another cage for 4 hours (Wednesday and Friday). Every night, the cage was inclined (45°, Tuesday and Thursday) or contained wet bedding (Wednesday and Friday). On Saturday and Sunday, the rats were subjected to a reversed dark/light cycle for 30 min, every three hours.
Experiments were performed as described by Becker et al. (2008) and Blugeot et al. (2011). Sucrose and water intakes were measured daily at 9:00 am. Weekly sweet water consumption was expressed as a percentage of control values (measured one week before the beginning of the conditioning sessions). Sweet water consumption indicated a preference for sucrose. […]

[3] = test system: aconitase; assay: Aconitase activity in hippocampus; type: in vivo, Sprague-Dawley rats; conditions: V rats; 288 μmol/kg/day, 15 days from D11; D31
Method: Rats were killed by decapitation and their right hippocampi were rapidly removed and homogenized in ice-cold buffer (5 mM Tris-HCl pH 7.5, 210 mM mannitol, 70 mM sucrose, 1 mM EDTA and 2.3 mM sodium citrate). Homogenates were rapidly centrifuged (14,000×g, 10 min, 4° C.) and the pellets were immediately frozen in liquid nitrogen and stored at −80° C. Aconitase activity was measured spectrophotometrically (Gardner et al., 1994), by monitoring the linear absorbance change at 340 nm, at 25° C., in a 1.0-ml reaction mixture containing 50 mM Tris HCl (pH 7.5), 0.05% BSA, 2 mM sodium citrate, 2 mM MnCl2, 0.4 mM NADP+, 0.85 units of isocitrate dehydrogenase, and 10-20 μg of protein extract. The absorbance change associated with aconitase activity was linear with respect to time and protein concentration. One milliunit of aconitase activity was defined as the amount of enzyme catalyzing the formation of 1 nmol of D-isocitrate per min and per mg.
(§1) Tempol (4-hydroxy-2,2,6,6-tetramethylpiperidine 1-oxyl), which was administered at a dose of 288 μmol/kg/day [Sigma-Aldrich, St Louis, Mo., USA]), was dissolved in distilled water and delivered via ALZET osmotic mini-pumps (2002, Charles River Laboratories, France). […]

[4] = test system: BDNF; assay: Serum BDNF assay; type: in vivo, Sprague-Dawley rats; conditions: vulnerable animals vs vulnerable animals treated with vehicle
Method: Blood samples (200 μl) were collected from conscious rats at various time points (D-4, D5, D11, D31 at midday). These samples were taken from the tail vein and were collected in Eppendorf tubes. The samples were centrifuged to separate off the serum, which was stored at −20° C. until BDNF analysis. BDNF concentrations were determined at a dilution of 1:25, with a commercial BDNF assay (Promega Corporation), in 96-well plates (Corning Costar® EIA plate), according to the manufacturer's instructions.
Another serum BDNF was carried out. Blood samples (200 μl) of awake rats were collected at different time-points (D-4, D9, D35, D57 at midday) from the vein of the tail into eppendorf tubes. After centrifugation, serum was separated and stored at −20° C. until analysis for BDNF. BDNF concentrations were determined at dilution of 1:25 with a commercial BDNF assay (Promega Corporation), in 96-well plates (Corning Costar® EIA plate), according to the manufacturer's instructions.
as §1

Structure (SMILES): CC1(C)CC(O)CC(C)(C)N1[O] [TEMPOL, 4-hydroxy-2,2,6,6-tetramethylpiperidin-1-oxyl]
- oxidative stress [1]: decreased the oxidative stress in V animals
- sweet water consumption [2]: prevented
- aconitase activity [3]: lack of aconitase activity dysfunction
- serum BDNF levels [4]: induced the recovery of serum BDNF levels

Reference: patent US20190060298A1, “NEW DRUG FOR THE TREATMENT AND/OR PREVENTION OF DEPRESSIVE DISORDERS” (SORBONNE UNIVERSITE, priority 2013, published 2019)
